PubChem BioAssay (NCI)
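Exposure lasted 48 hours, with cells grown in 96-well plates and compounds tested at five concentrations. At the TGI there is no net growth.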

What was measured:
Assay in all cases: DTP human tumour cell line panel, 48 h
[1] = system: MOLT-4 leukemia
[2] = system: HL-60(TB) leukemia
[3] = system: HT29 colon
[4] = system: CCRF-CEM leukemia
[5] = system: A549 NSCLC
[6] = system: KM12 colon
[7] = system: SNB-19 CNS
[8] = system: RXF 393 renal
[9] = system: UACC-257 melanoma
[10] = system: HCT-116 colon
[11] = system: SF-295 CNS
[12] = system: ACHN renal
[13] = system: SW-620 colon
[14] = system: MDA-MB-435
[15] = system: LOX IMVI melanoma
[16] = system: SK-MEL-28 melanoma
[17] = system: TK-10 renal
[18] = system: CAKI-1 renal
[19] = system: MDA-MB-231 breast
[20] = system: PC-3 prostate
[21] = system: DU-145 prostate
[22] = system: HOP-92 NSCLC
[23] = system: MALME-3M melanoma
[24] = system: OVCAR-5 ovarian
[25] = system: HS 578T breast
[26] = system: U251 CNS
[27] = system: MDA-N
[28] = system: MCF7 breast
[29] = system: SNB-75 CNS
[30] = system: UACC-62 melanoma
[31] = system: SF-268 CNS
[32] = system: T-47D breast
[33] = system: OVCAR-4 ovarian
[34] = system: UO-31 renal
[35] = system: SN12C renal
[36] = system: M14 melanoma
[37] = system: HCT-15 colon
[38] = system: OVCAR-8 ovarian
[39] = system: SK-OV-3 ovarian
[40] = system: HCC-2998 colon
[41] = system: NCI-H226 lung
[42] = system: SF-539 CNS
[43] = system: HOP-62 NSCLC
[44] = system: NCI-H460 lung
[45] = system: K-562 leukemia
[46] = system: COLO 205 colon
[47] = system: SK-MEL-2 melanoma
[48] = system: NCI-H23 lung
[49] = system: NCI-H522 lung
[50] = system: IGROV1 ovarian
[51] = system: NCI/ADR-RES ovarian
[52] = system: EKVX NSCLC
[53] = system: OVCAR-3 ovarian
[54] = system: SK-MEL-5 melanoma
[55] = system: 786-0 renal
[56] = system: A498 renal
[57] = system: RPMI-8226 leukemia
[58] = system: BT-549 breast
[59] = system: SR leukemia

Measured: TGI

Cc1ccc(S(=O)(=O)NN=C2C(C)(C)CC2(C)C)cc1
not listed: [57] | [58] | [59]
> 100 µM: all other assays above

Cc1cc(O)c2c(c1)C(C1OC(CO)C(O)C(O)C1O)c1cc(O)cc(O)c1C2=O (configuration not stated)
not listed: [6] | [8] | [15] | [18] | [25] | [42] | [47] | [49]
> 100 µM: all other assays above
